Results published in PMC6754442, “Structure of Csx1-cOA4 complex reveals the basis of RNA decay in Type III-B CRISPR-Cas” (Nature Communications, 2019).

Legend:
SisCsx1 [1] = target: T1, SisCsx1 (Saccharolobus islandicus, UniProt F0NE21); experiment: native gel shift with […]-labelled cOA4; assay type: binding
T1 construct: gene SiRe_0884; full-length His-tagged, expressed from pSe-Csx1 in S. islandicus delta-csx1 delta-alpha; 300 kDa hexamer (trimer of dimers); CARF-HTH-HEPN; cOA4 site between two CARF domains; residues printed up to A454
T1 sequence (F0NE21 1-454): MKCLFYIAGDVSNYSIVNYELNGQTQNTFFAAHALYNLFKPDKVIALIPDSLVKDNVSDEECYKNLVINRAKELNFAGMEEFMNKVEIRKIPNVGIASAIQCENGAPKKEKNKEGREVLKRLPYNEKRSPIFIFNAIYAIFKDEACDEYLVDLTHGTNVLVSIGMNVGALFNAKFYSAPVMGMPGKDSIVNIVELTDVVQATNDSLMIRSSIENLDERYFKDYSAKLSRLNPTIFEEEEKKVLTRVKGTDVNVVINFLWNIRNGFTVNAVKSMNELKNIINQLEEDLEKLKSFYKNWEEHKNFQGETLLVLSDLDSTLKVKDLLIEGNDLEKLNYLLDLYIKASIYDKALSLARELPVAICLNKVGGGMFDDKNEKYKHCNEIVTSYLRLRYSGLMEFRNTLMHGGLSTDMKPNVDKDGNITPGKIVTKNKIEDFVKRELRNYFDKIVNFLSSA

SisCsx1 [2] = target: T1, SisCsx1; experiment: fluorescent dark-RNA cleavage (activation dose response); assay type: biochemical; conditions: 1-128 nM cOA4, 34 nM SisCsx1, 0.2 µM dark-RNA, 70 °C, 3 min; allosteric activator
[3] = target: Sulfolobus islandicus Csx1 (Sulfolobus islandicus); experiment: SEC-MALS; Superdex 200 Increase 10/300 GL, room temperature, 20 mM Tris pH 8.0, 300 mM NaCl; 50 ul injected at 1.9 mg/ml
[4] = target: Sulfolobus islandicus Csx1 I383A/L390D/R391A mutant (Sulfolobus islandicus); experiment: as above

Compound: Nc1ncnc2c1ncn2[C@@H]1O[C@@H]2COP(=O)(O)O[C@H]3[C@@H](O)[C@H](n4cnc5c(N)ncnc54)O[C@@H]3COP(=O)(O)O[C@H]3[C@@H](O)[C@H](n4cnc5c(N)ncnc54)O[C@@H]3COP(=O)(O)O[C@H]3[C@@H](O)[C@H](n4cnc5c(N)ncnc54)O[C@@H]3COP(=O)(O)O[C@H]2[C@H]1O [cOA4]
- Kd (SisCsx1 [1]): ~0.018 µM
- fluorescent dark-RNA cleavage (activation dose response) (SisCsx1 [2]): cleavage of a ssRNA substrate was quantified in the presence of increasing amounts of cOA4

Compound: Sulfolobus islandicus Csx1 (enzyme)
- stoichiometry N [3]: 6

Compound: Sulfolobus islandicus Csx1 I383A/L390D/R391A mutant (enzyme)
- stoichiometry N [4]: 2
